{"source": "patent US20080220072A1", "about": "“BIOLOGIC MODULATIONS WITH NANOPARTICLES” (priority 2002, published 2008)", "key": {"SCC-15": {"system": "SCC-15", "test": "Growth inhibition in chemoresistant head neck cancer cell line", "type": "cell-based, human", "method": "Antisense molecules were tested for growth inhibition against the chemoresistant head neck cancer cell line SCC-15 at 10,000 cells per well, the cells being pretreated with tenascin, with results as shown in FIG. 5B-C. Referring to FIG. 5B, PO refers to phosphodiester antisense referred to as asCK2 in Table 9 (SEQ ID NO 1), PO sense refers to phosphodiester sense sequence complementary to asCK2, siRNA refers to a duplex RNA sequence that is screened from the asCk2 sequence, 2OME RNA refers to a nucleic acid of the sequence SEQ ID NO 1 that is all RNA and is al methylated, and PO RNA refers to a proprietary chimeric molecule having the sequence of SEQ ID NO 1 but being a mixture of RNA and DNA and having phosphodiester and 2OME backbone. […] Because of it's capacity for being metabolized, the PO RNA construct within the context of a colloidal formulation will offer advantages in safety for delivery of cytotoxic constructs.\nReferring to FIG. 5C, cisplatin TN/x s-50 refers to nanoparticles comprising cisplatin and a 1:1 w/w ratio of tenascin:dextran. Tn s-50 refers to nanoparticles comprising cisplatin and tenascin, asCK2 TN s-50 refers to nanoparticles comprising tenascin and asCK2 antisense of sequence SEQ ID NO 1, and free cisplatin refers to cisplatin added to the cell medium."}, "[1]": {"system": "metastatic variant of Alva-41 prostate carcinoma cells", "test": "Growth inhibition by nanoencapsulated cisplatin", "type": "cell-based, human", "details": "5,000 cells per well, 72 hours", "method": "Cisplatin was nanoencapsulated into the various candidate tumor binding agents as described previously and nanoparticles were compared for growth inhibition in a metastatic variant of Alva-41 prostate carcinoma cells and Ca-9-22. Formulas were tested in duplicate in two separate experiments. Results are illustrated for the prostate cell line in FIG. 5D. Referring to FIG. 5D, PEX-MMP-1/Cisplatin refers to s50 nanoparticles comprising cisplatin and the Recombinant Pex binding domain of membrane-associated Matrix Metalloproteinase-1 (see Bello et. al, Cancer Research (2001) 61: 8730-36); Tenascin/Cisplatin refers to s50 nanoparticles having tenascin and cisplatin, FN-PHSCN/Cisplatin refers to nanoparticles comprising the FN-PHSCN fragment and cisplatin, Osteonecetin/asCK2 refers to s50 nanoparticles comprising osteonectin and the asCK2 antisense sequence, galectin-3/cisplatin refers to s50 nanoparticles comprising galectin-3 and cisplatin, hyaluronan/cisplatin refers to s50 nanoparticles comprising hyaluronan and cisplatin, and naked cisplatin refers to the addition of free cisplatin to the cell medium. In these experiments cells were plated at 5,000 per well and followed for 72 hours. […] As a comparison, based on a standard male patient, an acceptable in vitro dose of cisplatin would correspond to about 10 μg/ml or 30 μM. […]"}, "cancer cells": {"system": "cancer cells", "test": "Growth inhibition, MTT/WST assay, antisense backbones", "type": "cell-based", "details": "maximal kill, 72 hours post treatment", "method": "The efficacies of various nucleic acid backbone chemistries were investigated by delivering […] to cancer cells in organ culture using a collection of nanoparticles that were less than about 50 nm in diameter. Recurrent head neck tumors are typically small (1-2 cm), but based on volumetric scaling between in vitro tumor nests and mouse studies, it is estimated that estimate that a dose of 3 5 mg will be required to locally treat a 2 cm tumor. Various nucleic acid chemistries may reduce this amount by either enhancing binding affinity between the target mRNA and the antisense, using the antisense to bind to DNA instead of RNA, or increasing nuclease resistance (and half-life). […] Biological activity was assayed as growth inhibition using the MTT/WST assay in a 96 well format. Cells were seeded at 20,000 per well, treated 18 hours later, then assayed at 72 hours post treatment. Although the cells are resistant to conventional chemotherapeutic agents, cisplatin activity is shown for reference (black line). […] Additional formats screened but not shown were a phosphodiester/2OME chimeric and the siRNA format."}, "[2]": {"system": "hormone-insensitive PC3 cells", "test": "Growth inhibition in prostate carcinoma cells", "type": "cell-based", "details": "PC3, 5,000 cells per untreated well", "method": "(§1) In these studies, cells were seeded at 5,000 cells per untreated well."}, "[3]": {"system": "hormone-sensitive Alva-41 prostate carcinoma cells", "test": "Growth inhibition in prostate carcinoma cells", "type": "cell-based, human", "details": "Alva-41, 5,000 cells per untreated well", "method": "as §1"}}, "data": [{"compound": "N.N.[Cl][Pt][Cl]", "note": "[free cisplatin, cisplatin, reference compound]", "values": [{"measurement": "overall in vitro kill", "setting": "SCC-15; SCC-15, FIG. 5C", "result": "zero"}, {"measurement": "IC50", "setting": "[1]", "result": 100, "unit": "µM"}]}, {"compound": "PO RNA: chimeric molecule with sequence of SEQ ID NO 1, mixture of RNA and DNA, phosphodiester and 2OME backbone (antisense GTCCCGACATGTCAGACAGG; RNA/DNA chimera, phosphodiester and 2'-O-methyl, chemistry not fully specified)", "values": [{"measurement": "IC50", "setting": "SCC-15; SCC-15, 10,000 cells per well, pretreated with tenascin", "result": 3, "unit": "µM"}]}, {"compound": "2-0 methyl RNA format: nucleic acid of the sequence SEQ ID NO 1 that is all RNA and methylated, in s50 nanoparticles (GTCCCGACATGTCAGACAGG; all 2'-O-methyl, backbone and T or U not given here; formulated in s50 nanoparticles)", "values": [{"measurement": "complete kill achieved in vitro", "setting": "cancer cells", "result": "capacity for complete kill"}]}, {"compound": "SEQ ID NO 1: GTCCCGACATGTCAGACAGG; phosphodiester antisense 20mer to CK2α translation start site (antisense GTCCCGACATGTCAGACAGG; all phosphodiester, sugars by position and methylation of C not given here)", "values": [{"measurement": "IC50", "setting": "[2]", "result": 40, "unit": "µM"}, {"measurement": "IC50", "setting": "[3]", "result": 15, "unit": "µM"}]}]}
